{"source": "patent US20190382445A1", "about": "“PEPTIDE HAVING MELANOGENESIS-INHIBITING ACTIVITY AND COMPOSITION COMPRISING SAME” (RUBY CROWN CO. LTD., priority 2016, published 2019)", "key": {"[1]": {"tested_on": "human epidermal melanocytes (HEM)", "assay": "Melanin content in HEM stimulated with α-MSH or L-tyrosine", "assay_type": "cell-based", "excerpt": "FIG. 5 is an experimental result showing effects of peptide B6 on cell viability of human epidermal melanocytes (HEM), melanin content and human tyrosinase (TYR) enzymatic activity. […] The intracellular and extracellular melanin contents were normalized with respect to the total protein content. […] Data are expressed in percent (%) as mean±standard error (mean±SE, n=3) compared to the vehicle control group. In the figures, #represents p<0.05 compared to the control group and * represents p<0.05 compared to cells stimulated only with tyrosine.\n(§1) Melanogenesis-inhibitory effects of the analyte (the peptides) was confirmed using the B16-F10 cell line and HEM. B16-F10 cells were treated with a test peptide at different concentrations for 60 minutes and stimulated using a 100 nM α-MSH for 72 hours. While HEM was also treated with the test peptide at different concentrations for 60 minutes and cultured with 100 nM α-MSH or 4.0 mM L-tyrosine while replacing the culture medium every 48 hours for 6 days. Using the culture medium used for culturing cells (conditioned medium), extracellular melanin level was measured. On the other hand, intercellular melanin was extracted with 0.1M NaOH at 60° C. for 60 minutes. A melanin content was determined by measuring an absorbance at 475 nm according to a spectroscopic method. The resultant values were subjected to normalization with respect to the total protein content of the cell.\n(§2) Cell viability was determined by treating the cells with B6 at different concentrations of up to 1 mM for 24 hours (A in FIG. 5). […] Further, effects on melanin content in the cells were examined by pre-treatment of the cells with B6 peptide at different concentrations of up to 300 μM, and then, stimulating the same with α-MSH at 100 nM or tyrosine at 4 mM for […] (B, C in FIG. 5). As a positive control group for melanogenesis inhibition, arbutin was used."}, "[2]": {"tested_on": "B16-F10 cells", "assay": "Melanin content in α-MSH-stimulated B16-F10 cells (absorbance at 475 nm)", "assay_type": "cell-based, murine", "conditions": "for melanin inhibitory effect of short peptides compared to B6 peptide: concentrations of 100 μM to 10 μM", "description": "FIG. 2 is an experimental result showing the effect of each hexapeptide on cellular melanin biosynthesis. FIG. 2A represents a peptide wherein the type of amino acids fixed at 3 positions in the amino acid sequence of the amino acids, while the type of amino acids is altered at the other 3 positions. FIG. 2B represents a peptide wherein the amino acid sequence was defined. The cell-based assay in FIG. 2 is conducted by treating B16-F10 cells with a vehicle or peptide at a predetermined concentration, stimulating the same with α-MSH at 100 nM, and measuring absorbance at 475 nm after 72 hours to determine melanin content. Data are expressed in percent (%) as mean ± standard error (mean±SE, n=3) compared to the vehicle control group. In the figures, # means p<0.05 compared to the control group and * means p<0.05 compared to cells stimulated only with α-MSH. The amino acid sequences described in FIG. 2 are all represented in the direction from the amino terminal to the carboxy terminal. An amino functional group (—NH2) shown in the peptide terminal is one added by carboxy terminal amidation used in peptide synthesis.\nThe cell-based Assay in FIG. 3 is conducted by treating B16-F10 cells with a vehicle or peptide at a predetermined concentration, stimulating the same with 100 nMα-[…], and measuring the absorbance at 475 nm after 72 hours to determine the melanin content. Data are expressed in percent (%) as mean±standard, error (mean±SE, n=3) compared to the vehicle control group. In the figures, # means p<0.05 compared to the control group and * means p<0.05 compared to cells stimulated only with α-MSH. The amino acid sequences described in FIG. 2 are all represented in the direction from the amino terminal to the carboxy terminal. An acetyl group (Ac—) shown in the peptide amino terminal or an amino functional group (—NH2) shown in the carboxy terminal is one added by chemical synthesis of peptide.\nas §1"}, "[3]": {"tested_on": "B16-F10 cells", "assay": "Cell viability by MTT assay, B16-F10", "assay_type": "cell-based, murine", "conditions": "up to 300 μM, 24 hours (tested up to 1 mM)", "description": "(§3) Cell viability was determined by 3-(4,5-dimethylthiazol-2-yl)-2,5-diphenyltetrazolium bromide (MTT) assay. B16-F10 cell line and HEM were treated with test peptides at different concentrations for 24 hours. After washing with PBS, the cells were in a culture medium 100 including 1 mg/mL MTT (Amresco, Solon, Ohio, USA) added thereto for 3 hours. After removing the culture medium, formazan accumulated in the cells was […] using isopropanol and subjected to determination of absorbance at 595 nm using a SPECTROstar Nano microplate reader (BMG LABTECH GmbH, Ortenberg, Germany).\nCell viability was determined by treating the cells with B6 at different concentrations up to 1 mM for 24 hours (A in FIG. 4). […] Further, effects on melanin content in the cells were examined by pre-treatment of the cells with B6 peptide at different concentrations of up to 300 μM, and then, stimulating the same with α-MSH at 100 nM for 72 hours (B in FIG. 4)."}, "[4]": {"tested_on": "human epidermal melanocytes (HEM)", "assay": "Cell viability by MTT assay, HEM", "assay_type": "cell-based", "conditions": "up to 300 μM, 24 hours (tested up to 1 mM)", "description": "as §3, §2"}}, "note": "Ends that are not written are not given here."}
{"molecule": "Ac-Ser-Tyr-Ser-Met-Glu-His-Phe-Arg-Trp-Gly-Lys-Pro-Val-NH2 (Ac-SYSMEHFRWGKPV-NH2) [α-MSH, agent of melanocortin 1 receptor used to stimulate melanogenesis, reference compound]", "values": [{"measurement": "melanogenesis, effect of stimulus α-MSH", "setting": "[1]; α-MSH at 100 nM, HEM", "result": "did not show significant effect on melanogenesis"}, {"measurement": "melanin content, effect of stimulus", "setting": "[2]; α-MSH alone, B16-F10 cells", "result": "increased melanin content"}]}
{"molecule": "N[C@@H](Cc1ccc(O)cc1)C(=O)O", "note": "[L-tyrosine]", "values": [{"measurement": "extracellular and intracellular melanin contents, effect of stimulus L-tyrosine", "setting": "[1]; tyrosine at 4 mM, HEM", "result": "increased extracellular and intracellular melanin contents"}]}
{"molecule": "Phe-Ser-His-His-Leu (FSHHL; C2 peptide)", "values": [{"measurement": "melanin inhibitory effect of short peptides compared to B6 peptide", "setting": "[2]; 100 nM α-MSH, 72 hours", "result": "did not substantially inhibit melanogenesis"}]}
{"molecule": "FSHHLG-NH2 [B6, Phe-Ser-His-His-Leu-Gly]", "values": [{"measurement": "cell viability", "setting": "[3]", "result": "did not affect the viability"}, {"measurement": "cell viability", "setting": "[4]", "result": "did not affect the viability"}]}
{"molecule": "Ser-His-His-Leu-Gly (SHHLG; C3 peptide)", "values": [{"measurement": "melanogenesis inhibitory effect of short peptide", "setting": "[2]; 100 μM, 100 nM α-MSH, 72 hours", "result": "excellent in melanogenesis inhibitory effect"}]}
{"molecule": "OC[C@H]1O[C@@H](Oc2ccc(O)cc2)[C@H](O)[C@@H](O)[C@@H]1O", "note": "[arbutin]", "values": [{"measurement": "inhibition of increase in melanin content by L-tyrosine", "setting": "[1]; HEM stimulated with 4 mM L-tyrosine, peptide up to 300 μM", "result": "effectively inhibited"}]}
{"molecule": "FSHHLG [C1]", "values": [{"measurement": "melanin inhibitory effect of short peptides compared to B6 peptide", "setting": "[2]; 100 nM α-MSH, 72 hours", "result": "melanin inhibitory effect similar to B6 peptide"}]}
